Experimental data from publication PMC8482815, “Targeting Host Glycolysis as a Strategy for Antimalarial Development” (Frontiers in Cellular and Infection Microbiology, 2021).
Values joined by “and” are separate entries in the source; they are usually repeats but may differ in a detail not shown here. Equal values may be shown once.

Test system: human erythrocytes
Test: Untargeted metabolomics and 13C-glucose tracing of enolase inhibitor treated erythrocytes
Format: cell-based
Conditions: 1h
Description: Freshly collected erythrocytes were washed, resuspended to 10% hematocrit in buffer [25mM HEPES (pH 7.4), 120mM NaCl, 5.4mM KCl, 1.8mM CaCl2, and 1mM NaH2PO4], incubated for 1 hour at 37°C, then centrifuged at 2000xg for 5 minutes at 4°C, resuspended in fresh wash buffer to 30-40% hematocrit, and split into 210µL aliquots of packed erythrocytes. […] All samples were incubated at 37°C shaking at 500 RPM. Triplicate samples of supernatants and packed erythrocytes were collected at 0, 0.5, 1, and 6-hour intervals and snap-frozen in liquid N2.
RBC and media samples were extracted at 1:10 and 1:20 dilutions, respectively, in 5:3:2 MeOH : MeCN:H2O v/v/v, and supernatants analyzed on a Thermo Vanquish UHPLC coupled to a Thermo Q Exactive mass spectrometer, as extensively described ([Nemkov et al., 2015]; [Nemkov et al., 2017]). The extraction buffer was supplemented with 40uM 3-^13C lactate to allow absolute quantification of lactate isotopologues, including lactate generated via glycolysis ([1,2,3-^13C3] enriched) vs. the pentose phosphate pathway ([2,3-^13C2] enriched), as described ([Reisz et al., 2016]). Metabolite assignments, peak area integration and isotopologues distributions were determined using Maven (Princeton University) ([Nemkov et al., 2015]; [Nemkov et al., 2017]).
Data were auto-scaled and normalized to zero-hour time points. Metabolites were removed from the dataset if greater than 50% of the samples contained missing values or the relative standard deviation among replicates exceeded 25%. Additionally, data was filtered using the interquartile range to reduce near-constant values from the experiment by 5%.
A principal component analysis of preprocessed data was plotted with the 95% confidence interval minimum volume enclosing ellipsoid for each respective group (MetaboAnalyst, cluster, plotly). A two-way repeated measures analysis of variance (ANOVA) was performed with multiple comparisons corrected for using a false discovery rate p-value cutoff of 0.05. Metabolite-Pathway analysis was performed using the R package of MetaboAnalyst, as previously described ([Xia and Wishart, 2010]). Metabolite-Protein nodal analysis was performed using omicsnet.ca and as previously described ([Zhou and Xia, 2018]).

[1] = treated erythrocytes, one value per replicate sample, polarity +
[2] = treated erythrocytes, one value per replicate sample, polarity -
[3] = treated erythrocytes, replicate samples

CC(C)(C)C(=O)OCOP(=O)(OCOC(=O)C(C)(C)C)C1CC(O)N(O)C1=O (stereo not shown) [POMSF]
AMP level (metabolomics signal) (replicate samples): 2.14E+06 and 1.66E+06 and 1.77E+06 | ATP level (metabolomics signal) (replicate samples): 1.57E+04 and 2.82E+04 and 2.26E+04 | Adenine level (metabolomics signal) (replicate samples): 1.34E+05 and 1.22E+05 and 1.52E+05 | Cytosine level (metabolomics signal) (replicate samples): 3.68E+05 and 3.33E+05 and 3.22E+05 | L-alanine level (metabolomics signal) (replicate samples): 8.35E+06 and 9.14E+06 and 1.12E+07 | L-arginine level (metabolomics signal) (replicate samples): 1.02E+07 and 1.01E+07 and 0.00E+00 | L-asparagine level (metabolomics signal) (replicate samples): 7.51E+06 and 6.72E+06 and 7.84E+06 | L-aspartate level (metabolomics signal) (replicate samples): 3.12E+07 and 3.26E+07 and 2.90E+07 | L-cysteine level (metabolomics signal) (replicate samples): 1.80E+06 and 1.83E+06 and 5.70E+05 | L-glutamate level (metabolomics signal) (replicate samples): 3.18E+07 and 2.68E+07 and 2.49E+07 | L-glutamine level (metabolomics signal) (replicate samples): 8.50E+07 and 9.01E+07 and 8.26E+07 | L-histidine level (metabolomics signal) (replicate samples): 1.59E+06 and 1.54E+06 and 1.57E+06 | L-isoleucine level (metabolomics signal) (replicate samples): 1.27E+07 and 1.24E+07 and 1.09E+07 | L-leucine level (metabolomics signal) (replicate samples): 2.27E+08 and 2.54E+08 and 2.31E+08 | L-lysine level (metabolomics signal) (replicate samples): 2.40E+06 and 2.03E+06 and 1.89E+06 | L-methionine level (metabolomics signal) (replicate samples): 2.24E+07 and 2.35E+07 and 2.22E+07 | L-phenylalanine level (metabolomics signal) (replicate samples): 1.58E+07 and 1.49E+07 and 1.43E+07 | L-proline level (metabolomics signal) (replicate samples): 6.58E+07 and 5.90E+07 and 5.39E+07 | L-serine level (metabolomics signal) (replicate samples): 4.64E+06 and 5.26E+06 and 6.00E+06 | L-threonine level (metabolomics signal) (replicate samples): 8.46E+06 and 8.55E+06 and 8.85E+06 | L-tryptophan level (metabolomics signal) (replicate samples): 5.00E+06 and 4.41E+06 and 4.35E+06 | L-tyrosine level (metabolomics signal) (replicate samples): 2.58E+07 and 2.87E+07 and 2.75E+07 | L-valine level (metabolomics signal) (replicate samples): 1.53E+08 and 1.47E+08 and 1.51E+08 | dCMP level (metabolomics signal) (replicate samples): 1.51E+04 and 1.42E+04 and 1.15E+04 | dTMP level (metabolomics signal) (replicate samples): 1.28E+06 and 1.27E+06 and 1.22E+06 | glycine level (metabolomics signal) (replicate samples): 1.77E+06 and 2.28E+06 and 2.53E+06 | N-Acyl-D-aspartate (C06380) metabolite signal [1]: 1.57E+05 and 1.16E+05 and 1.31E+05 | Poly-gamma-D-glutamate (C05723) metabolite signal [1]: 5.78E+07 and 6.19E+07 and 5.54E+07 | D-Ribitol 5-phosphate (C01068) metabolite signal [2]: 2.08E+04 and 2.67E+04 and 2.32E+04 | D-glucono-1,5-lactone (C00198) metabolite signal [2]: 3.06E+05 and 3.20E+05 and 3.38E+05 | L-Noradrenaline (C00547) metabolite signal [2]: 3.16E+04 and 3.80E+04 and 3.20E+04 | Oxalosuccinate (C05379) metabolite signal [2]: 9.37E+04 and 1.04E+05 and 9.63E+04 | Pyridoxamine (C00534) metabolite signal [2]: 1.68E+04 and 1.54E+04 and 2.58E+04 | Thioredoxin disulfide (C00343) metabolite signal [2]: 5.72E+04 and 1.02E+05 and 5.14E+04 | 1-4-beta-D-Xylan (metabolite signal) [3]: 1.97E+05 and 1.92E+05 and 2.09E+05 | 2-Hydroxyglutarate/Citramalate (C02630) metabolite signal [3]: 7.86E+04 and 5.69E+04 and 5.61E+04 | 5-6-Dihydrothymine (C00906) metabolite signal [3]: 2.50E+05 and 2.77E+05 and 2.96E+05 | 5-10-Methenyltetrahydrofolate (metabolite signal) [3]: 1.06E+05 (2×) and 7.96E+04 | 5-Hydroxyisourate (C11821) metabolite signal [3]: 1.50E+06 and 2.10E+06 and 4.21E+06 | 5-L-Glutamyl-taurine (metabolite signal) [3]: 1.11E+05 and 1.18E+05 and 1.16E+05 | 5-Oxoproline (metabolite signal) [3]: 8.27E+05 and 7.57E+05 and 7.14E+05 | (S)(+)-Allantoin (C02350) metabolite signal [3]: 1.72E+04 and 1.57E+04 and 2.62E+04 | Allantoate (C00499) metabolite signal [3]: 6.65E+05 and 5.04E+05 and 3.15E+05 | Ascorbate (metabolite signal) [3]: 1.17E+05 and 8.53E+04 and 8.00E+04 | CMP-N-acetylneuraminate (metabolite signal) [3]: 1.67E+04 and 8.29E+03 and 7.76E+03 | Carnosine (metabolite signal) [3]: 1.06E+05 and 9.45E+04 and 2.03E+05 | Citrate (C00158) metabolite signal [3]: 4.35E+04 and 3.82E+04 and 3.29E+04 | Creatine (metabolite signal) [3]: 2.46E+08 and 2.26E+08 and 2.23E+08 | Creatinine (metabolite signal) [3]: 2.77E+06 and 2.62E+06 and 2.87E+06 | Cys-Gly (metabolite signal) [3]: 2.32E+06 and 2.14E+06 and 1.32E+06 | D-Glucosamine (metabolite signal) [3]: 2.29E+05 and 1.27E+05 and 2.04E+05 | D-Glucose (C00031) metabolite signal [3]: 5.29E+06 and 5.04E+06 and 5.14E+06 | D-Ribose (C00121) metabolite signal [3]: 1.64E+05 and 1.19E+05 and 1.18E+05 | Dehydroascorbate (metabolite signal) [3]: 6.32E+04 and 5.87E+04 and 4.12E+04 | Dihydrofolate (metabolite signal) [3]: 3.00E+06 and 2.07E+06 and 9.85E+05 | Dimethylglycine (metabolite signal) [3]: 8.86E+05 and 1.02E+06 and 8.96E+05 | Diphosphate (C00013) metabolite signal [3]: 2.94E+04 and 3.31E+04 and 1.77E+04 | Fumarate (C00122) metabolite signal [3]: 1.04E+05 and 8.86E+04 and 8.87E+04 | Glutathione (C00051) metabolite signal [3]: 1.54E+08 and 1.50E+08 and 9.17E+07 | Glutathione disulfide (metabolite signal) [3]: 1.48E+05 and 9.64E+04 and 9.50E+04 | Hypoxanthine (C00262) metabolite signal [3]: 3.21E+04 and 1.66E+04 and 8.15E+03 | IMP (C00130) metabolite signal [3]: 1.58E+05 and 9.80E+04 and 1.96E+05 | Inosine (C00294) metabolite signal [3]: 6.71E+04 and 6.29E+04 and 6.63E+04 | L-Citrulline (metabolite signal) [3]: 2.74E+06 and 3.23E+06 and 3.99E+06 | L-Homoserine (metabolite signal) [3]: 2.34E+05 and 2.10E+05 and 2.35E+05 | Lactate (C01432) metabolite signal [3]: 9.22E+06 and 8.76E+06 and 8.98E+06 | Malate (C00149) metabolite signal [3]: 1.55E+05 and 1.07E+05 and 9.91E+04 | Mannitol (C00392) metabolite signal [3]: 1.01E+05 and 9.53E+04 and 1.38E+05 | N-Acetylneuraminate (metabolite signal) [3]: 2.25E+04 and 1.68E+04 and 2.38E+04 | N-Glycoloyl-neuraminate (metabolite signal) [3]: 1.23E+05 and 1.51E+05 and 1.32E+05 | NAD+ (C00003) metabolite signal [3]: 8.73E+04 and 4.11E+04 and 4.40E+04 | Nicotinamide (C00153) metabolite signal [3]: 3.46E+07 and 3.78E+07 and 4.86E+07 | Ornithine (metabolite signal) [3]: 1.57E+06 (2×) and 1.55E+06 | Oxaloacetate (C00036) metabolite signal [3]: 5.69E+04 and 5.42E+04 and 4.38E+04 | Phosphoserine (metabolite signal) [3]: 0.00E+00 (2×) and 3.46E+04 | Putrescine (metabolite signal) [3]: 4.96E+04 and 2.87E+04 and 4.23E+04 | Pyridoxal (C00250) metabolite signal [3]: 5.84E+04 and 5.75E+04 and 6.92E+04 | Pyruvate (C00022) metabolite signal [3]: 9.01E+05 and 7.95E+05 and 8.15E+05 | S-Glutathionyl-L-cysteine (metabolite signal) [3]: 1.18E+05 and 8.54E+04 and 7.69E+04 | Sedoheptulose 1-phosphate (C06222) metabolite signal [3]: 1.59E+04 and 1.93E+04 and 8.80E+03 | Spermidine (metabolite signal) [3]: 8.37E+06 and 7.92E+06 and 6.82E+06 | Spermine (metabolite signal) [3]: 1.09E+07 and 1.10E+07 and 8.00E+06 | Succinate (C00042) metabolite signal [3]: 7.45E+04 and 8.48E+04 and 5.74E+04 | Thymidine (C00214) metabolite signal [3]: 1.11E+04 and 1.24E+04 and 8.29E+03 | UDP (C00015) metabolite signal [3]: 2.25E+05 and 1.89E+05 and 1.40E+05 | UDP-N-acetyl-D-glucosamine (metabolite signal) [3]: 1.24E+04 and 7.59E+03 and 4.65E+03 | UDP-glucose (C00029) metabolite signal [3]: 2.38E+04 and 1.72E+04 and 9.18E+03 | Urate (C00366) metabolite signal [3]: 3.27E+04 and 2.94E+04 and 2.46E+04 | Xanthine (C00385) metabolite signal [3]: 2.31E+05 and 1.91E+05 and 1.90E+05 | alpha-D-Glucosamine 1-phosphate (metabolite signal) [3]: 4.45E+05 and 6.15E+05 and 8.58E+05 | alpha-D-Ribose 1-phosphate (C00620) metabolite signal [3]: 6.39E+04 and 6.67E+04 and 4.32E+04 | gamma-Glutamyl-gamma-aminobutyrate (metabolite signal) [3]: 7.63E+04 and 8.93E+04 and 1.06E+05 | gamma-L-Glutamyl-D-alanine (metabolite signal) [3]: 4.26E+04 and 3.07E+04 and 3.12E+04 | gamma-L-Glutamyl-L-cysteine (metabolite signal) [3]: 3.96E+04 and 5.76E+04 and 1.90E+04
